The text below walks through data of patent publication US8962842B2, “2-pyridone antimicrobial compositions” (priority 2010, dated 2015).

Series [1] is described as follows: Mouse pharmacokinetics, intravenous or oral 10 mg/kg (Table 9). The series is classed as in vivo. Conditions: mice, plasma; for half-life: read-out: Elimination Half life (converted); for bioavailability: p.o. vs i.v. The method, then:
Groups of 21 mice were treated with select examples at 10 mg/kg. Mice were treated either intravenously or orally (by gavage). At predetermined time points (0.25, 0.5, 1, 2, 4, 8 and 24 hours), 3 mice were sacrificed and blood samples drawn by cardiac puncture. Plasma was obtained by centrifugation and stored at −80° C. Plasma samples were analyzed by LC-MS for remaining amounts of compounds.

The subject of series [2] is Escherichia coli (6 strains). Briefly: MIC range, broader panel of Quotient Bioresearch strains (Table 4). The series is classed as cell-based. To be noted: for MIC50: read-out: MIC Range Median, Escherichia coli (6 strains).
Series [3] deals with Klebsiella pneumonia (4 strains). The series is described as above. Type of series: cell-based. Conditions: Klebsiella pneumoniae; for MIC50: read-out: MIC Range Median, Klebsiella pneumonia (4 strains).
The test system of series [4] is Pseudomonas aeruginosa (12 strains). Described as above. The series is classed as cell-based. Conditions: for MIC50: read-out: MIC Range Median, Pseudomonas aeruginosa (12 strains).
Series [5] relates to Burkholderia cepacia (5 strains). The description is as above. The series is classed as cell-based. To be noted: for MIC50: read-out: MIC Range Median, Burkholderia cepacia (5 strains).
The test system of series [6] is Haemophilus influenza (5 strains). Described as above. To be noted: for MIC50: 16 h, Median of the strain panel. The series is classed as cell-based, Haemophilus influenzae.
In series [7] the test system is Acinetobacter baumannii (12 strains). The description is as above. Type of series: cell-based. Conditions: for MIC50: read-out: MIC Range Median, Acinetobacter baumannii (12 strains).
The subject of series [8] is Staphylococcus aureus (16 strains). Briefly: MIC range, broader panel of Quotient Bioresearch strains (Table 3). To be noted: for MIC50: read-out: MIC Range Median, Staphylococcus aureus (16 strains).
Series [9] concerns Enterococcus faecalis (5 strains). The description is as above. Conditions: for MIC50: read-out: MIC Range Median, Enterococcus faecalis (5 strains).
In series [10] the test system is Enterococcus faecium (3 strains). The series is described as above. To be noted: for MIC50: read-out: MIC Range Median, Enterococcus faecium (3 strains).
The subject of series [11] is Streptococcus pneumonia (5 strains). Described as above. Conditions: Streptococcus pneumoniae; for MIC50: read-out: MIC Range Median, Streptococcus pneumonia (5 strains).
Series [12] relates to Streptococcus pyogenes (4 strains). The description is as above. Conditions: for MIC50: read-out: MIC Range Median, Streptococcus pyogenes (4 strains).
Series [13] has as its system Group C Streptococcus (4 strains). Described as above. Conditions: for MIC50: read-out: MIC Range Median, Group C Streptococcus (4 strains).
[14] abbreviates: read-out: MIC Range High, Burkholderia cepacia (5 strains).
Where [15] appears, read: read-out: MIC Range Low, Burkholderia cepacia (5 strains).
The mark [16] stands for this setting: High of the strain panel, read-out: MIC Range High, Haemophilus influenza (5 strains).
Where [17] appears, read: Low of the strain panel, read-out: MIC Range Low, Haemophilus influenza (5 strains).
The mark [18] stands for this setting: read-out: MIC Range High, Staphylococcus aureus (16 strains).
Setting [19] is: read-out: MIC Range Low, Staphylococcus aureus (16 strains).
Setting [20] is: read-out: MIC Range High, Enterococcus faecalis (5 strains).
The mark [21] stands for this setting: read-out: MIC Range Low, Enterococcus faecalis (5 strains).
Setting [22] is: read-out: MIC Range High, Enterococcus faecium (3 strains).
The mark [23] stands for this setting: read-out: MIC Range Low, Enterococcus faecium (3 strains).
[24] abbreviates: read-out: MIC Range High, Streptococcus pneumonia (5 strains).
[25] abbreviates: read-out: MIC Range Low, Streptococcus pneumonia (5 strains).
Setting [26] is: read-out: MIC Range High, Streptococcus pyogenes (4 strains).
Where [27] appears, read: read-out: MIC Range Low, Streptococcus pyogenes (4 strains).
Where [28] appears, read: read-out: MIC Range High, Group C Streptococcus (4 strains).
Where [29] appears, read: read-out: MIC Range Low, Group C Streptococcus (4 strains).

Molecules are shown by their SMILES. ≈ marks a conversion by molar mass, not a printed value. Where two headings read alike, the source gives them in different places.

Consider `Cc1c(-c2ccc(N)c(F)c2)ccn2c(=O)c(C(=O)[O-])cc(C3CC3)c12.[K+]` [Ex. 2 K salt], for which the half-life in series [1] (iv, i.v.) is 1.48 h. Also, in series [1] (iv), the AUC(0-inf) was found to be 1340 ng·h/mL and the peak concentration (Cmax) turned out to be 2100 ng/mL. In addition, in [1] (po), the bioavailability worked out at 47.8%, the area under the curve AUC(0-inf) worked out at 642 ng·h/mL and the concentration peaked (Cmax) at 394 ng/mL. In series [1] (po, p.o.), the half-life is 1.51 h.

As to `Cc1c(-c2cc(F)c(N)c(F)c2)ccn2c(=O)c(C(=O)[O-])cc(C3CC3)c12.[K+]` [Example 39 K salt, potassium 8-(4-amino-3,5-difluoro-phenyl)-1-cyclopropyl-9-methyl-4-oxo-4H-quinolizine-3-carboxylate], the MIC is 16 µg/mL in series [2] (read-out: MIC Range High, Escherichia coli (6 strains)); at most 0.015 µg/mL in series [2] (read-out: MIC Range Low, Escherichia coli (6 strains)); 32 µg/mL in series [3] (read-out: MIC Range High, Klebsiella pneumonia (4 strains)); 0.12 µg/mL in [3] (read-out: MIC Range Low, Klebsiella pneumonia (4 strains)); 16 µg/mL in series [4] (read-out: MIC Range High, Pseudomonas aeruginosa (12 strains)); 0.5 µg/mL in series [4] (read-out: MIC Range Low, Pseudomonas aeruginosa (12 strains)). For the same compound, the MIC in series [5] (setting [14]) was 0.5 µg/mL; in series [5] (setting [15]), 0.06 µg/mL; in series [6] (setting [16]), at most 0.015 µg/mL; in series [6] (setting [17]), at most 0.015 µg/mL; in series [7] (read-out: MIC Range High, Acinetobacter baumannii (12 strains)) it was 16 µg/mL; in series [7] (read-out: MIC Range Low, Acinetobacter baumannii (12 strains)), 0.06 µg/mL. Besides, the MIC was 0.12 µg/mL in series [8] (setting [18]); at most 0.015 µg/mL in series [8] (setting [19]); 0.5 µg/mL in series [9] (setting [20]); at most 0.015 µg/mL in [9] (setting [21]); 1 µg/mL in series [10] (setting [22]); 0.12 µg/mL in series [10] (setting [23]). In addition, the MIC stood at 0.25 µg/mL in series [11] (setting [24]); 0.12 µg/mL in [11] (setting [25]); 0.25 µg/mL in series [12] (setting [26]); 0.06 µg/mL in [12] (setting [27]); 0.12 µg/mL in [13] (setting [28]); 0.03 µg/mL in series [13] (setting [29]). For the same compound, the MIC50 is 12 µg/mL in series [2]; 9 µg/mL in series [3]; 4 µg/mL in [4]; 0.25 µg/mL in [5]; at most 0.015 µg/mL in series [6]; 4 µg/mL in series [7]. Moreover, the MIC50 stood at 0.06 µg/mL in [8]; 0.03 µg/mL in [9]; 0.5 µg/mL in series [10]; 0.12 µg/mL in [11]; 0.12 µg/mL in [12]; 0.09 µg/mL in series [13].

For the compound `Cc1c(C2=CCNCC2)ccn2c(=O)c(C(=O)O)cc(C3CC3)c12` [Example 42, 1-cyclopropyl-9-methyl-4-oxo-8-(1,2,3,6-tetrahydropyridin-4-yl)-4H-quinolizine-3-carboxylic acid], the MIC was over 32 µg/mL in [2] (High of the strain panel, read-out: MIC Range High, Escherichia coli (6 strains)); 0.06 µg/mL (≈ 0.185 µM) in series [2] (Low of the strain panel, read-out: MIC Range Low, Escherichia coli (6 strains)); over 32 µg/mL in series [3] (High of the strain panel, read-out: MIC Range High, Klebsiella pneumonia (4 strains)); 0.12 µg/mL (≈ 0.37 µM) in series [3] (Low of the strain panel, read-out: MIC Range Low, Klebsiella pneumonia (4 strains)); over 32 µg/mL in [4] (High of the strain panel, read-out: MIC Range High, Pseudomonas aeruginosa (12 strains)); 1 µg/mL (≈ 3.08 µM) in [4] (Low of the strain panel, read-out: MIC Range Low, Pseudomonas aeruginosa (12 strains)). Also, the MIC was 2 µg/mL (≈ 6.17 µM) in series [5] (setting [14]); 2 µg/mL (≈ 6.17 µM) in [5] (setting [15]); 0.06 µg/mL (≈ 0.185 µM) in series [6] (setting [16]); 0.03 µg/mL (≈ 0.0925 µM) in series [6] (setting [17]); over 32 µg/mL in series [7] (High of the strain panel, read-out: MIC Range High, Acinetobacter baumannii (12 strains)); 0.25 µg/mL (≈ 0.771 µM) in series [7] (Low of the strain panel, read-out: MIC Range Low, Acinetobacter baumannii (12 strains)). The MIC in series [8] (setting [18]) is 32 µg/mL (≈ 98.6 µM); in series [8] (setting [19]) it was 0.5 µg/mL (≈ 1.54 µM); in series [9] (setting [20]), 32 µg/mL (≈ 98.6 µM); in [9] (setting [21]), 4 µg/mL (≈ 12.3 µM); in series [10] (setting [22]), over 32 µg/mL; in [10] (setting [23]), 16 µg/mL (≈ 49.3 µM). The MIC in series [11] (setting [24]) amounted to 8 µg/mL (≈ 24.7 µM); in series [11] (setting [25]) it was 4 µg/mL (≈ 12.3 µM); in series [12] (setting [26]), 8 µg/mL (≈ 24.7 µM); in [12] (setting [27]), 2 µg/mL (≈ 6.17 µM); in series [13] (setting [28]) it was 4 µg/mL (≈ 12.3 µM); in [13] (setting [29]), 2 µg/mL (≈ 6.17 µM). Also, the MIC50 in series [2] (Median of the strain panel) is 32 µg/mL (≈ 98.6 µM); in [3] (Median of the strain panel), 8 µg/mL (≈ 24.7 µM); in series [4] (Median of the strain panel) it was 32 µg/mL (≈ 98.6 µM); in series [5], 2 µg/mL (≈ 6.17 µM); in series [6], 0.06 µg/mL (≈ 0.185 µM); in series [7] (Median of the strain panel) it was over 32 µg/mL. Besides, the MIC50 in series [8] was 16.2 µg/mL (≈ 50.1 µM); in [9], 4 µg/mL (≈ 12.3 µM); in [10] it was over 32 µg/mL; in [11], 4 µg/mL (≈ 12.3 µM); in [12], 3 µg/mL (≈ 9.25 µM); in series [13], 2 µg/mL (≈ 6.17 µM).

For the compound `Cc1c(-c2cc(F)c(N)cc2F)ccn2c(=O)c(C(=O)[O-])cc(C3CC3)c12.[K+]` [Ex. 28 K salt], the half-life in series [1] (iv, i.v.) is 1.07 h. In series [1] (iv), this compound showed an AUC(0-inf) of 1650 ng·h/mL and a Cmax of 2850 ng/mL. In [1] (po), this compound displayed a bioavailability of 43%, an AUC(0-inf) of 710 ng·h/mL and a peak concentration (Cmax) of 227 ng/mL. The half-life in series [1] (po, p.o.) was 3.33 h.

On to `Cc1c(-c2ccc(O)cc2)ccn2c(=O)c(C(=O)[O-])cc(C3CC3)c12.[K+]` [Ex. 46 K salt], for which the half-life in [1] (iv, i.v.) was 1.07 h; in series [1] (po, p.o.) it was 4.16 h. Besides, the total exposure AUC(0-inf) in series [1] (iv) stood at 474 ng·h/mL; in series [1] (po), 389 ng·h/mL. In addition, the Cmax in series [1] (iv) amounted to 1060 ng/mL; in series [1] (po) it was 156 ng/mL. The bioavailability in series [1] (po) worked out at 82.1%.

`Cc1c(-c2ccc3[nH]ncc3c2)ccn2c(=O)c(C(=O)[O-])cc(C3CC3)c12.[K+]` [Ex. 23 K salt]: the half-life in series [1] (iv, i.v.) was 1.16 h. In series [1] (iv), this compound had a total exposure AUC(0-inf) of 2040 ng·h/mL and a Cmax of 3430 ng/mL. In [1] (po), this compound registered a bioavailability of 85.9%, an AUC(0-inf) of 1750 ng·h/mL and a peak concentration (Cmax) of 866 ng/mL. The half-life in series [1] (po, p.o.) is 0.988 h.

Regarding `Cc1c(-c2ccc(N)nc2)ccn2c(=O)c(C(=O)[O-])cc(C3CC3)c12.[K+]` [Ex. 21 K salt], the half-life in series [1] (iv, i.v.) was 1.31 h; in series [1] (po, p.o.), 2.11 h. The Cmax in series [1] (iv) worked out at 467 ng/mL; in series [1] (po), 242 ng/mL. In addition, the area under the curve AUC(0-inf) in series [1] (po) stood at 471 ng·h/mL.
